Consider nine compounds from patent publication US7880007B2, “Bicyclic substituted phenyl piperidine modulators of muscarinic receptors” (Vertex Pharmaceuticals Incorporated, priority 2004, dated 2011).

Structures are written as SMILES. Some results are limits rather than exact numbers.

Common to all, as to type: cell-based
The target in one assay is T1, M1 muscarinic receptor (Homo sapiens, UniProt P11229).
T1 construct: expressed in transfected cells; host or cells: CHO (M1-CHO)
T1 sequence (P11229 1-460): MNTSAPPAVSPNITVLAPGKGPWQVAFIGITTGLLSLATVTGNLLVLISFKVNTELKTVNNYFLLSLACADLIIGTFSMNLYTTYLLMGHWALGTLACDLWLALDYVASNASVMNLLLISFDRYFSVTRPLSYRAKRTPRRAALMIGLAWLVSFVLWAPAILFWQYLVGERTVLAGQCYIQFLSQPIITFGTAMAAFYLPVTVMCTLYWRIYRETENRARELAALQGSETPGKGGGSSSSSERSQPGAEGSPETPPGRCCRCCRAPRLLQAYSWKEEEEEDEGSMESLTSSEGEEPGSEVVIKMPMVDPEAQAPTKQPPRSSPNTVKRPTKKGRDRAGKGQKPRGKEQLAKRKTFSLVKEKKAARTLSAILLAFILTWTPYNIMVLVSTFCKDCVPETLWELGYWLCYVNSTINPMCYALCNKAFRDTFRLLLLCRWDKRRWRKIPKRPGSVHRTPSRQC
Nature of the assay: Functional mobilization of intracellular calcium (FLIPR), M1-CHO cells. Particulars: for Emax: 100% efficacy = maximum response obtained with the Carbachol control; for M1 Activity: M1-CHO cells, calcium mobilization (FLIPR). The method in brief: (§1)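 FLIPR fluorescence (ex 488, em 540 nm) recorded 60 sec after compound addition to dye-loaded CHO cells. Agonist mode: compound alone. Antagonist mode: 15 min compound pre-incubation, then carbachol at EC80, or co-application. Efficacy expressed as % of maximal carbachol response.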
Background: Calcium assays in cells follow changes in intracellular calcium, usually with a dye or a luminescent sensor.

The next assay has as its target T2, M4 muscarinic receptor (Homo sapiens, UniProt P08173).
T2 construct: expressed in transfected cells; host or cells: CHO (M4-CHO)
T2 sequence (P08173 1-479): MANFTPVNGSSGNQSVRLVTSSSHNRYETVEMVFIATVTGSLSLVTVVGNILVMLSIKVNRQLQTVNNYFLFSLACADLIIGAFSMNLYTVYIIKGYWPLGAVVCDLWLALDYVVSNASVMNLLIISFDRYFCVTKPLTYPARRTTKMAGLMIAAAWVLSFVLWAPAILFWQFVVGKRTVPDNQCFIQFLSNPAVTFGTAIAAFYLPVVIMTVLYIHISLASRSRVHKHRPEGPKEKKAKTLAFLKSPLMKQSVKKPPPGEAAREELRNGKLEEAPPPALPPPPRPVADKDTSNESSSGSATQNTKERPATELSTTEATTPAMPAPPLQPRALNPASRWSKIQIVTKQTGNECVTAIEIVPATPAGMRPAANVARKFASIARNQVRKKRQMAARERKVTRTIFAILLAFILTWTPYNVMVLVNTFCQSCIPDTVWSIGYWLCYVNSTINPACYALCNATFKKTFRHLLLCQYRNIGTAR
Nature of the assay: Functional mobilization of intracellular calcium (FLIPR), M4-CHO cells. To be noted: for Emax: 100% efficacy = maximum response obtained with the Carbachol control; for M4 Activity: M4-CHO cells, calcium mobilization (FLIPR). In a few lines: as §1

The target of the next assay is T3, M2 muscarinic receptor (Homo sapiens, UniProt P08172).
T3 construct: expressed in transfected cells; host or cells: CHO (M2-CHO)
T3 sequence (P08172 1-466): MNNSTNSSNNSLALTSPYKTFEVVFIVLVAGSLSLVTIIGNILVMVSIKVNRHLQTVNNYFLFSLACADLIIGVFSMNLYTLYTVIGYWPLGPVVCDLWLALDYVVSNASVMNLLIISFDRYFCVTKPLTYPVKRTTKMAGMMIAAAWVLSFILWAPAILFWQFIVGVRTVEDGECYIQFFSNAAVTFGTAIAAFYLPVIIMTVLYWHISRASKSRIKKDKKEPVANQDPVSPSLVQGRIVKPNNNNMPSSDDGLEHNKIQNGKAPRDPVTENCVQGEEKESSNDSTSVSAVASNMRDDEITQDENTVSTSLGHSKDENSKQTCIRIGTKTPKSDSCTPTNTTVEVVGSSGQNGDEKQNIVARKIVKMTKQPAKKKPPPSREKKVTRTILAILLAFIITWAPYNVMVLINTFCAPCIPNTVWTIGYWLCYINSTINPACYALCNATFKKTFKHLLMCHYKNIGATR
Nature of the assay: Functional mobilization of intracellular calcium (FLIPR), M2-CHO cells. To be noted: for Emax: 100% efficacy = maximum response obtained with the Carbachol control; for M2 Activity: M2-CHO cells, calcium mobilization (FLIPR). In a few lines: as §1

In the case of `COc1ccc(Cl)cc1C1(OC)CCN(C2CC3CCC(C3)C2)CC1` (stereo not drawn) [Compound 288], at M1 muscarinic receptor, the Emax (commonly the size of the effect at its maximum, as opposed to the concentration needed) lay in the range of 25 to 100% and the “M1 Activity” value is given as “++ (activity was measured to be from 1.0 μM to 5.0 μM)”. Further, at M4 muscarinic receptor, the maximal effect (Emax) was in the range of 25 to 100% and the “M4 Activity” value is given as “+++ (activity was measured to be less than 1.0 μM)”. In addition, on M2 muscarinic receptor, the maximal effect (Emax) is less than 25% and the “M2 Activity” value is listed as “+ (activity was measured to be greater than 5.0 μM)”.

For `CCCC1CCC(N2CCC(c3cc(Cl)ccc3OC)CC2)CC1` (stereo not drawn) [Compound 293], on M1 muscarinic receptor, the maximum response (Emax) was 25 to 100% and the “M1 Activity” value was “++ (activity was measured to be from 1.0 μM to 5.0 μM)”. At M4 muscarinic receptor, the Emax is 25 to 100% and the “M4 Activity” value was “++ (activity was measured to be from 1.0 μM to 5.0 μM)”. For the same compound, on M2 muscarinic receptor, the Emax was 25 to 100% and the “M2 Activity” value was “++ (activity was measured to be from 1.0 μM to 5.0 μM)”.

For the compound `COc1ccc(Cl)cc1C1(O)CCN(C2CCOCC2)CC1` [Compound 304], on M1 muscarinic receptor, the maximal effect (Emax) was less than 25% and the “M1 Activity” value is on record as “+ (activity was measured to be greater than 5.0 μM)”. Also, at M4 muscarinic receptor, the Emax was in the range of 25 to 100% and the “M4 Activity” value was “+ (activity was measured to be greater than 5.0 μM)”. In addition, on M2 muscarinic receptor, the maximum response (Emax) was less than 25% and the “M2 Activity” value was “+ (activity was measured to be greater than 5.0 μM)”.

On to `COc1ccc(Cl)cc1C1(OC)CCN(C2CC3CCC2C3)CC1` (stereo not drawn) [Compound 308], for which, at M1 muscarinic receptor, the maximum response (Emax) is less than 25% and the “M1 Activity” value is “+ (activity was measured to be greater than 5.0 μM)”. Further, at M4 muscarinic receptor, the maximum response (Emax) was 25 to 100% and the “M4 Activity” value was “++ (activity was measured to be from 1.0 μM to 5.0 μM)”. On M2 muscarinic receptor, the maximum response (Emax) is less than 25% and the “M2 Activity” value is reported as “+ (activity was measured to be greater than 5.0 μM)”.

On to `COc1ccccc1C1CCN(C2CC3CCC2O3)CC1` (stereo not drawn) [Compound 312], for which, on M1 muscarinic receptor, the Emax is less than 25% and the “M1 Activity” value was “+ (activity was measured to be greater than 5.0 μM)”. Besides, at M4 muscarinic receptor, the maximal effect (Emax) is less than 25% and the “M4 Activity” value is “+ (activity was measured to be greater than 5.0 μM)”. Besides, on M2 muscarinic receptor, the maximum response (Emax) was less than 25% and the “M2 Activity” value was “+ (activity was measured to be greater than 5.0 μM)”.

Consider `Cc1ccc(Cl)cc1C1CCN(CC2C[C@H]3CC[C@H]2C3)CC1` (stereo partly drawn) [Compound 315], for which, on M1 muscarinic receptor, the Emax was in the range of 25 to 100% and the “M1 Activity” value is given as “+ (activity was measured to be greater than 5.0 μM)”. For the same compound, on M4 muscarinic receptor, the Emax was in the range of 25 to 100% and the “M4 Activity” value is on record as “+++ (activity was measured to be less than 1.0 μM)”. Also, on M2 muscarinic receptor, the Emax lay within 25 to 100% and the “M2 Activity” value is reported as “+ (activity was measured to be greater than 5.0 μM)”.

Consider `CCCC1CCC(N2CCC(OC)(c3cc(Cl)ccc3OC)CC2)CC1` (stereo not drawn) [Compound 316], for which, at M1 muscarinic receptor, the Emax is 25 to 100% and the “M1 Activity” value is given as “++ (activity was measured to be from 1.0 μM to 5.0 μM)”. Moreover, on M4 muscarinic receptor, the Emax is 25 to 100% and the “M4 Activity” value is recorded as “++ (activity was measured to be from 1.0 μM to 5.0 μM)”. Also, at M2 muscarinic receptor, the Emax was less than 25% and the “M2 Activity” value is listed as “+ (activity was measured to be greater than 5.0 μM)”.

Take `COc1ccc(Cl)cc1C1(O)CCN(C[C@@H]2C[C@H]3C=C[C@H]2C3)CC1` [Compound 319]: at M1 muscarinic receptor, the Emax is less than 25% and the “M1 Activity” value was “+ (activity was measured to be greater than 5.0 μM)”. For the same compound, at M4 muscarinic receptor, the maximal response (Emax) was 25 to 100% and the “M4 Activity” value was “++ (activity was measured to be from 1.0 μM to 5.0 μM)”. On M2 muscarinic receptor, the maximal response (Emax) was less than 25% and the “M2 Activity” value is reported as “+ (activity was measured to be greater than 5.0 μM)”.

As to `CCCC1CCC(N2CCC(C#N)(c3ccccc3OC)CC2)CC1` (stereo not drawn) [Compound 335], on M1 muscarinic receptor, the maximal effect (Emax) was 25 to 100% and the “M1 Activity” value was “++ (activity was measured to be from 1.0 μM to 5.0 μM)”. For the same compound, at M4 muscarinic receptor, the Emax is 25 to 100% and the “M4 Activity” value is recorded as “++ (activity was measured to be from 1.0 μM to 5.0 μM)”. Besides, at M2 muscarinic receptor, the Emax is less than 25% and the “M2 Activity” value is “+ (activity was measured to be greater than 5.0 μM)”.
